What was measured:
BRD4(BD1+BD2) protein = target: T1, BRD4(BD1+BD2) protein (Homo sapiens, UniProt O60885); assay: BRD4 binding inhibition assay (TR-FRET); details: BRD4(BD1+BD2) TR-FRET Assay Kit, reaction 2 hours at room temperature; read-out: IC50 (concentration necessary for 50% inhibition of BRD4 binding activity)
T1 construct: 5 μL of BRD4(BD1+BD2) protein solution prepared to 3.6 ng/μL; purchased BPS Bioscience Inc. 32612
Procedure: This assay measures binding inhibition activity of the test substance on the bromodomain of BRD4 protein.
BRD4 binding inhibition activity assay was carried out using a BRD4(BD1+BD2)TR-FRET Assay Kit (BPS Bioscience Inc. Catalog #32612), according to the attached instructions. In a flat-bottom 384-well white plate (Greiner 781080) there was added 8 μL of Tb-labeled donor/dye-labeled acceptor solution diluted 160-fold with 1×BRD TR-FRET Assay Buffer1, with 5 μL of BET Bromodomain Ligand diluted 40-fold with 1×BRD TR-FRET Assay Buffer1 in the test substance measuring wells and the Positive Control wells, and 5 μL of Non-acetylated Ligand1 diluted 40-fold with 1×BRD TR-FRET Assay Buffer1 in the Negative Control wells. After adding 2 μL of test substance diluted with 1×BRD TR-FRET Assay Buffer1 to the test substance measuring wells, and 2 μL of Dimethyl Sulfoxide solution diluted 100-fold with 1×BRD TR-FRET Assay Buffer1 to the Positive Control wells and Negative Control wells, 5 μL of BRD4(BD1+BD2) protein solution prepared to 3.6 ng/μL with 1×BRD TR-FRET Assay Buffer1 was added and reaction was conducted for 2 hours at room temperature. The fluorescence intensity was measured at 620 nm and 665 nm with irradiation of 340 nm excitation light into each well, using an Envision™ (Perkin-Elmer). The ratio of fluorescence intensity at […] with respect to fluorescence intensity at 620 nm for each well was recorded as the TR-FRET ratio, and the TR-FRET ratio in the presence of the test substance was calculated with the Positive Control well value as 100%, subtracting the Negative Control well value. The concentration of test substance necessary for 50% inhibition of BRD4 binding activity (IC50) was calculated from the TR-FRET ratio, and shown in Table 1.

[1] = test system: AsPC-1/Cas9 cell line (human pancreatic cancer cell line AsPC-1); assay: AsPC-1/Cas9 growth inhibition assay; assay type: cell-based; details: 5 days culture, CellTiter Glo 2.0, read-out: IC50 (Absolute IC50, 50% inhibition of cell growth)
Procedure: Human pancreatic cancer cell line AsPC-1 (ATCC Number CRL1682) was infected with Edit-R Lentiviral hCMV-Blast-Cas9 Nuclease Particle (Dharmacon, VCAS10124) in the presence of 8 μg/ml of Hexadimethrine bromide (Sigma, H9268), and after 24 hours it was exposed to 10 μg/ml of Blastcidin S (Thermo, A11139) to remove the uninfected cells, thereby establishing an AsPC-1/Cas9 cell line. The cells were maintenance cultured in a 5% CO2 incubator (37° C.) using RPMI-1640 (FujiFilm-Wako Pure Chemical Industries) containing 10% fetal bovine serum (FBS: SIGMA 173012) and penicillin/streptomycin (FujiFilm-Wako Pure Chemical Industries) (hereunder referred to simply as “culture medium”). After adding 25 μL of AsPC-1/Cas9 cell suspension prepared to 3.2×10^4 cells/mL using culture medium into each well of a 384-well plate (Greiner 781091), the cells were cultured overnight in a 5% CO2 incubator (37° C.). On the following day, 25 μL of the test substance diluted with culture medium was added to each well, and culturing was continued for 5 days in a 5% CO2 incubator (37° C.). Next, 25 μL of CellTiter Glo™ 2.0 (Promega) was added to each well, and the plate contents were mixed for 5 minutes using a plate mixer. The plate was stationed for 10 minutes at room temperature while shielded from light, and then the luminous intensity was measured with an ENVISION™ (Perkin-Elmer). The luminescence value of the wells with addition of test substance was determined as a relative value, with 100% as the luminescence value of the wells with cells but without addition of the test substance and 0% as the luminescence value of the wells without cells. A plot of test substance concentration against luminescence value % approximated a 4-parameter logistic curve, and the test substance concentration necessary for 50% inhibition of cell growth (Absolute IC50) was calculated, and is shown in Table 10. In Table 10, the antibodies listed as “CEACAM6_#84.7” are the anti-CEACAM6 antibody of Example 301-1, the antibodies listed as “003” are the anti-folate receptor α antibody of Example 301-2, and the antibodies listed as “345A12” are the anti-mesothelin antibody of Example 301-3.
According the same method as in the AsPC-1/Cas9 growth inhibition assay described in Example 313 above, the test substance concentration necessary for 50% inhibition of cell growth (Absolute IC50) in the ADC described in Example 318 was calculated and is shown in Table 12.

Compound | IC50 (BRD4(BD1+BD2) protein) | IC50 [1]
C[C@@H]1CN(CC2CCN(c3nc(C(CN)(OC4CC4)c4ccccc4)c4cc(-c5cn(C)c(=O)c6[nH]ccc56)ccc4n3)CC2)[C@@H](C)CN1 (stereo partly drawn) [Example 28, 4-(4-(2-Amino-1-cyclopropoxy-1-phenylethyl)-2-(4-(((2S,5R)-2,5-dimethylpiperazin-1-yl)methyl)piperidin-1-yl)quinazolin-6-yl)-6-methyl-1,6-dihydro-7H-pyrrolo[2,3-c]pyridin-7-one] | 82 nM | 0.023 nM
C[C@@H]1CN(C2CCN(c3nc(C(CN)(OC4CC4)c4ccccc4)c4cc(-c5cn(C)c(=O)c6[nH]ccc56)ccc4n3)CC2)[C@@H](C)CN1 (stereo partly shown) [Example 31] | 61 nM | 0.037 nM
C#CC1CCN(c2nc(C(CO)(OC3CC3)c3ccccc3)c3cc(-c4cn(C)c(=O)c5[nH]ccc45)ccc3n2)CC1 (stereo not shown) [Example 26, 4-(4-(1-Cyclopropoxy-2-hydroxy-1-phenylethyl)-2-(4-ethynylpiperidin-1-yl)quinazolin-6-yl)-6-methyl-1,6-dihydro-7H-pyrrolo[2,3-c]pyridin-7-one] | 47 nM | 0.032 nM
Cn1cc(-c2ccc3nc(N4CCC(N5CCC(C)(N)CC5)CC4)nc(C(CO)(OC4CC4)c4ccccc4)c3c2)c2cc[nH]c2c1=O (stereo not shown) [Example 27, 4-(2-(4-Amino-4-methyl-[1,4′-bipiperidin]-1′-yl)-4-(1-cyclopropoxy-2-hydroxy-1-phenylethyl)quinazolin-6-yl)-6-methyl-1,6-dihydro-7H-pyrrolo[2,3-c]pyridin-7-one] | 80 nM | –
COc1cc(=O)n(C)cc1-c1ccc2nc(N)nc(C(CO)(CC3CC3)c3cccnc3)c2c1 (stereo not shown) [Example 25, 5-(2-Amino-4-(1-cyclopropyl-3-hydroxy-2-(pyridin-3-yl)propan-2-yl)quinazolin-6-yl)-4-methoxy-1-methylpyridin-2(1H)-one] | 130 nM | 0.057 nM
Cc1cc(-c2ccc3nc(N)nc(C(CO)(OC4CC4)c4ccccc4)c3c2)cn(C)c1=O (stereo not shown) [Example 2, 5-(2-Amino-4-(1-cyclopropoxy-2-hydroxy-1-phenylethyl)quinazolin-6-yl)-1,3-dimethylpyridin-2(1H)-one] | 26 nM | –
CNCCN(C)C(=O)OCC(OC1CC1)(c1ccccc1)c1nc(N2CCC(CN3C[C@@H](C)NC[C@@H]3C)CC2)nc2ccc(-c3cn(C)c(=O)cc3OC)cc12 (stereo partly drawn) [Example 34, 2-Cyclopropoxy-2-(2-(4-(((2S,5R)-2,5-dimethylpiperazin-1-yl)methyl)piperidin-1-yl)-6-(4-methoxy-1-methyl-6-oxo-1,6-dihydropyridin-3-yl)quinazolin-4-yl)-2-phenylethyl methyl(2-(methylamino)ethyl)carbamate] | 91 nM | –
Cn1cc(-c2ccc3nc(N4CCC(OC5CCNCC5)CC4)nc(C(CO)(c4ccccc4)c4ccccc4)c3c2)c2ccoc2c1=O [Example 35, 4-(4-(2-Hydroxy-1,1-diphenylethyl)-2-(4-(piperidin-4-yloxy)piperidin-1-yl)quinazolin-6-yl)-6-methylfuro[2,3-c]pyridine-7(6H)-one] | 87 nM | 0.038 nM
CCCC(CO)(CCC)c1nc(N2CCC(CN3CCNCC3)CC2)nc2ccc(-c3cn(C)c(=O)cc3OC)cc12 [Example 32, 5-(4-(4-(Hydroxymethyl)heptan-4-yl)-2-(4-(piperazin-1-ylmethyl)piperidin-1-yl)quinazolin-6-yl)-4-methoxy-1-methylpyridin-2(1H)-one] | 81 nM | –
C#CC1(O)CCN(C2CCN(c3nc(C(CO)(OC4CC4)c4ccccc4)c4cc(-c5cn(C)c(=O)c6[nH]ccc56)ccc4n3)CC2)CC1 (stereo not shown) [Example 30] | 27 nM | < 0.015 nM
Cc1cc(-c2ccc3nc(N)nc([C@@](CO)(OC4CC4)c4ccccc4)c3c2)cn(C)c1=O [Example 36, (S)-5-(2-Amino-4-(1-cyclopropoxy-2-hydroxy-1-phenylethyl)quinazolin-6-yl)-1,3-dimethylpyridin-2(1H)-one] | 25 nM | 0.035 nM
C#CCNC1(C)CCN(C2CCN(c3nc(C(CO)(OC4CC4)c4ccccc4)c4cc(-c5cn(C)c(=O)c6[nH]ccc56)ccc4n3)CC2)CC1 (stereo not shown) [Example 29, 4-(4-(1-Cyclopropoxy-2-hydroxy-1-phenylethyl)-2-(4-methyl-4-(prop-2-yn-1-ylamino)-[1,4′-bipiperidin]-1′-yl)quinazolin-6-yl)-6-methyl-1,6-dihydro-7H-pyrrolo[2,3-c]pyridin-7-one] | 57 nM | 0.041 nM
COc1cc(=O)n(C)cc1-c1ccc2nc(N3CCC(N4CCC(C)(N)CC4)CC3)nc(C(CO)(OC3CC3)c3cccc4ccccc34)c2c1 (stereo not shown) [Example 33, 5-(2-(4-Amino-4-methyl-[1,4′-bipiperidin]-1′-yl)-4-(1-cyclopropoxy-2-hydroxy-1-(naphthalen-1-yl)ethyl)quinazolin-6-yl)-4-methoxy-1-methylpyridin-2(1H)-one] | 440 nM | < 0.015 nM

From patent publication US20240148895A1, “ANTIBODY-DRUG CONJUGATE” (Eisai R&D Management Co., Ltd., priority 2022, published 2024)
